Experiment [1] deals with HDAC2 (Homo sapiens, UniProt Q92769). In words: HDAC inhibition, HDAC2. In kind it is biochemical.
The target of experiment [2] is T1, HDAC6 (Homo sapiens, UniProt Q9UBN7).
T1 sequence (Q9UBN7 1-1215): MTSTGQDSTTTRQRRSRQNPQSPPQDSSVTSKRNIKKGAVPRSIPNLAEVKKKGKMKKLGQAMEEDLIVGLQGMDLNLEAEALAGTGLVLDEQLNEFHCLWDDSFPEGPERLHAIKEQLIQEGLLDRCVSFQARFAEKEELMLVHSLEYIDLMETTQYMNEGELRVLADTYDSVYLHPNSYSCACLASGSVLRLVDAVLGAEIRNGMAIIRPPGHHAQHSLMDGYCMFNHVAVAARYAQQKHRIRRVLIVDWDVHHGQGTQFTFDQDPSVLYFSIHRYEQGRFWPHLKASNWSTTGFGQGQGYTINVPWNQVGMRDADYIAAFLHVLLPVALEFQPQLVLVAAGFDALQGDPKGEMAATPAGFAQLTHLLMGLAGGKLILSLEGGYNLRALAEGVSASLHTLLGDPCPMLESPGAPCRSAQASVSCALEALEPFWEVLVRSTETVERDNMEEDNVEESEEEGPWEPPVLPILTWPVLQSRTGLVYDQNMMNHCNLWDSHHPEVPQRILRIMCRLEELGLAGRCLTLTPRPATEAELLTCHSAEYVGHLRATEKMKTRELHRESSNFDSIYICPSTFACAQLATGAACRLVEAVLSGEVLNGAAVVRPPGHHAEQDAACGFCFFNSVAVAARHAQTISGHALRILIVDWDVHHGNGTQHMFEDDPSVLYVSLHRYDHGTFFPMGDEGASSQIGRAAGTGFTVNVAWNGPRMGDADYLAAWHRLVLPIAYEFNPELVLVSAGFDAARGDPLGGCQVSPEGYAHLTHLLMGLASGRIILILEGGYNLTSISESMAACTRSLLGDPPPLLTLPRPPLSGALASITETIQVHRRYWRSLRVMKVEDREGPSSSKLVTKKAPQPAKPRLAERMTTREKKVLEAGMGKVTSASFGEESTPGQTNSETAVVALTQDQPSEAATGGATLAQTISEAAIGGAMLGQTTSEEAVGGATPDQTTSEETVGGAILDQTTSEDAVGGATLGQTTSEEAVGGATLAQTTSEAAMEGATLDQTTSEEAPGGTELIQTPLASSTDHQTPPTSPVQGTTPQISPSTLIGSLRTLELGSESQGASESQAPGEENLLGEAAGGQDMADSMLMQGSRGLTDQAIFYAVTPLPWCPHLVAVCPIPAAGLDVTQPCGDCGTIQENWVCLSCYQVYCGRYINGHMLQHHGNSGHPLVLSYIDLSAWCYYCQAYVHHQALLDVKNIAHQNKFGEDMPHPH
In words: HDAC inhibition, HDAC6. The format is biochemical.

For experiment [3], the target named is T2, HDAC8 (Homo sapiens, UniProt Q9BY41).
T2 sequence (Q9BY41 1-377): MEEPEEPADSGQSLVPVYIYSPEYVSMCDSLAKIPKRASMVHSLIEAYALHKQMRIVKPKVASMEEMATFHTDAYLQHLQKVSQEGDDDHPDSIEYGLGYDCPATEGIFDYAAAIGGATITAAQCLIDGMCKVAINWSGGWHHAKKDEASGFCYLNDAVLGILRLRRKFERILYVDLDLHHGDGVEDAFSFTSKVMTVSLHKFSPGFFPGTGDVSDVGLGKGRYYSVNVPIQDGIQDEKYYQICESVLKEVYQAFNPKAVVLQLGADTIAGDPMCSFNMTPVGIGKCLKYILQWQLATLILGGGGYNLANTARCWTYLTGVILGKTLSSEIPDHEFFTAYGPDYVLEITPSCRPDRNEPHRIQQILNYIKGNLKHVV
In words: HDAC inhibition, HDAC8. In kind it is biochemical.

For experiment [4], the target named is HDAC1 (Homo sapiens, UniProt Q13547). Briefly: HDAC inhibition, HDAC1. The format is biochemical.
For experiment [5], the system named is A549. Briefly: Cell growth inhibition, A549. In kind it is cell-based. Conditions: Homo sapiens, NI = No Inhibition at 100 uM.
Experiment [6] concerns VERO. In words: Cell growth inhibition, VERO. The format is cell-based. Conditions: Chlorocebus sabaeus, NI = No Inhibition at 100 uM.
Experiment [7] deals with Hep-G2. Briefly: Cell growth inhibition, Hep-G2. The format is cell-based. Particulars: Homo sapiens, HepG2, NI = No Inhibition at 100 uM.

HDAC1, sequence (Q13547 whole entry): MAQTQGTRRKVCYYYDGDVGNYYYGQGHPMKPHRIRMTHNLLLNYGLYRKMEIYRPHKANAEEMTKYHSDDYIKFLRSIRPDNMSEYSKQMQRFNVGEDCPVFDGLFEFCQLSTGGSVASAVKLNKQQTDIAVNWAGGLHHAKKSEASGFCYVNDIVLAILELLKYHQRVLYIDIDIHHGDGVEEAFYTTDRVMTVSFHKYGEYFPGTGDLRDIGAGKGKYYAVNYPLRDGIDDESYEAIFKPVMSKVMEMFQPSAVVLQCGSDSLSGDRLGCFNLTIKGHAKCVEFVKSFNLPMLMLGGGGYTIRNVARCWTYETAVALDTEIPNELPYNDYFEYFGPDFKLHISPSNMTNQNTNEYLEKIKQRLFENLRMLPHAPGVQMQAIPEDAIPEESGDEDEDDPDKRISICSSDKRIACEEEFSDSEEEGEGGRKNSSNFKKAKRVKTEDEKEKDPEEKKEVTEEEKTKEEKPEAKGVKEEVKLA
HDAC2, sequence (Q92769 whole entry): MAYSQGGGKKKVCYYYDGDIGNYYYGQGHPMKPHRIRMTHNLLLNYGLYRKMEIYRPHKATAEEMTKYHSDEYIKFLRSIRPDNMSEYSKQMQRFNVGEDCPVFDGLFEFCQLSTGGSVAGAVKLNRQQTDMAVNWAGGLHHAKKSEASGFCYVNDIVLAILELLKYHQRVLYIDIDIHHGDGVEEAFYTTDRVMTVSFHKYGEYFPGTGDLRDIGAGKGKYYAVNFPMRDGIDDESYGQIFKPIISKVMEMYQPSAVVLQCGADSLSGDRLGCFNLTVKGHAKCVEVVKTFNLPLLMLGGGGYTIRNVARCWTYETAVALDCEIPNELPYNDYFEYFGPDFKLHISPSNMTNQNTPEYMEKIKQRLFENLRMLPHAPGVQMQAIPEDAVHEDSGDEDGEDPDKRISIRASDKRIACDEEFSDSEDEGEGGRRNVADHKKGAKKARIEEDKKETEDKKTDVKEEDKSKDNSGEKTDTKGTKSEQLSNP

Turning to `CC(=O)OC[C@H]1OC(Oc2ccc3cc(-c4cn(CCCCCCC(=O)NO)nn4)ccc3c2)C(OC(C)=O)[C@@H](OC(C)=O)[C@@H]1OC(C)=O` (stereo in doubt) [STR-V-177, (2R,3R,4S,5R,6S)-2-(acetoxymethyl)-6-((6-(1-(7-(hydroxyamino)-7-oxoheptyl)-1H-1,2,3-triazol-4-yl)naphthalen-2-yl)oxy)tetrahydro-2H-pyran-3,4,5-triyl triacetate], the IC50 in experiment [1] was determined as 13.2 nM; in experiment [2], 1.65 nM; in experiment [3], 718 nM; in experiment [4], 2.2 nM.

In the case of `CC(=O)OC[C@H]1O[C@H](Oc2ccc(-c3cn(CCCCCCC(=O)NO)nn3)cc2)[C@@H](OC(C)=O)[C@@H](OC(C)=O)[C@@H]1OC(C)=O` [Compound 4], the IC50 in experiment [5] is 64.7 ± 7 µM; in experiment [6] it was 77.4 ± 5.6 µM; in experiment [7] it was 8 ± 0.9 µM.

Consider “(2R,3R,4S,5R,6R)-2-(acetoxymethyl)-6-(4-(1-(7-(((tert-butyldiphenylsilyl)oxy)-amino)-7-oxoheptyl)-1H-1,2,3-triazol-4-yl)phenoxy)tetrahydro-2H-pyran-3,4,5-triyl triacetate [STR-V-167]”, for which the IC50 in experiment [1] was found to be 66.4 nM; in experiment [2] it was 2.61 nM; in experiment [3], 311 nM; in experiment [4], 31.8 nM.

Regarding `O=C(CCCCCn1cc(-c2ccc(O[C@H]3O[C@H](CO)[C@@H](O)[C@H](O)[C@@H]3O)cc2)nn1)NO` [Compound 10], the IC50 in experiment [5] is greater than 100 µM; in experiment [6], greater than 100 µM; in experiment [7], 42.8 ± 0.5 µM.

Turning to `O=C(CCCCCCn1cc(-c2ccc(O)cc2)nn1)NO` [STR-V-183, N-hydroxy-7-(4-(4-hydroxyphenyl)-11-1-1,2,3-triazol-1-yl)heptanamide, reference compound], the IC50 in experiment [1] turned out to be 27.2 nM; in experiment [2], 1.05 nM; in experiment [3], 1960 nM; in experiment [4], 12.2 nM.

Regarding `O=C(CCCCCn1cc(-c2ccc(O[C@H]3O[C@H](CO)[C@@H](O)[C@H](O)[C@@H]3O)cc2)nn1)NO` [STR-II-29], the IC50 in experiment [1] is 146 nM; in experiment [2], 6.45 nM; in experiment [3] it was 3590 nM; in experiment [4] it was 68.2 nM.

Take `O=C(CCCCCCn1cc(-c2ccc(O[C@H]3O[C@H](CO)[C@@H](O)[C@H](O)[C@@H]3O)cc2)nn1)NO` [Compound 5]: the IC50 in experiment [5] was greater than 100 µM; in experiment [6] it was 65.5 ± 8.3 µM; in experiment [7], 22.3 ± 2 µM.

`Nc1ccc(F)cc1NC(=O)CCCCCCn1cc(-c2ccc(O[C@H]3O[C@H](CO)[C@@H](O)[C@H](O)[C@H]3O)cc2)nn1` [Compound 14]: the half-inhibitory concentration (IC50) is 59.9 µM in experiment [5] and greater than 100 µM in experiment [6].

In the case of `CC(=O)OC[C@H]1O[C@H](Oc2ccc(-c3cn(CCCCCCC(=O)NO)nn3)cc2)[C@H](OC(C)=O)[C@@H](OC(C)=O)[C@@H]1OC(C)=O` [Compound 1], the results for the IC50 in experiment [5], in experiment [6] and in experiment [7] were greater than 100 µM, greater than 100 µM and 10.1 ± 1.2 µM, respectively.

Turning to `CC(=O)OC[C@H]1OC(Oc2ccc(-c3cn(CCCCCCC(=O)NO)nn3)cc2)C(OC(C)=O)[C@@H](OC(C)=O)[C@@H]1OC(C)=O` (stereo in doubt) [STR-V-176, (2R,3R,4S,5R,6S)-2-(acetoxymethyl)-6-(4-(1-(7-(hydroxyamino)-7-oxoheptyl)-1H-1,2,3-triazol-4-yl)phenoxy)tetrahydro-2H-pyran-3,4,5-triyl triacetate], the IC50 came out at 4.2 nM in experiment [1], 1.05 nM in experiment [2], 271 nM in experiment [3] and 1.43 nM in experiment [4].

In the case of `CC(=O)OC[C@H]1O[C@H](Oc2ccc3cc(-c4cn(CCCCCCC(=O)NO)nn4)ccc3c2)[C@@H](OC(C)=O)[C@@H](OC(C)=O)[C@@H]1OC(C)=O` [Compound 6], the IC50 amounted to 39.6 ± 0.6 µM in experiment [5], 19.2 ± 0.9 µM in experiment [6] and 7.4 ± 0.9 µM in experiment [7].

`Nc1cc(F)ccc1NC(=O)CCCCCCn1cc(-c2ccc(O[C@H]3O[C@H](CO)[C@@H](O)[C@H](O)[C@H]3O)cc2)nn1` [Compound 15]: the IC50 in experiment [5] is greater than 100 µM; in experiment [6], greater than 100 µM; in experiment [7] it was roughly 100 µM.

Consider “(2S,3R,4S,6R)-4-(dimethylamino)-2-(4-(1-(7-(hydroxyamino)-7-oxoheptyl)-1H-1,2,3-triazol-4-yl)phenoxy)-6-methyltetrahydro-2H-pyran-3-yl acetate [STR-V-165]”, for which the IC50 in experiment [1] was found to be 27.5 nM; in experiment [2], 5.22 nM; in experiment [3], 806 nM; in experiment [4], 10.3 nM.

Take `O=C(CCCCCCn1cc(-c2ccc3cc(O[C@H]4O[C@H](CO)[C@@H](O)[C@H](O)[C@@H]4O)ccc3c2)nn1)NO` [Compound 7]: the IC50 was determined as 20.1 ± 1.1 µM in experiment [5], 33.6 ± 5.5 µM in experiment [6] and 7.5 ± 0.8 µM in experiment [7].

`O=C(CCCCCn1cc(-c2ccc3cc(O[C@H]4O[C@H](CO)[C@@H](O)[C@H](O)[C@@H]4O)ccc3c2)nn1)NO` [STR-II-35]: the IC50 in experiment [1] was determined as 47.1 nM; in experiment [2], 2.03 nM; in experiment [3], 1970 nM; in experiment [4] it was 26.8 nM.

Turning to `O=C(CCCCCCn1cc(-c2ccc(O[C@H]3O[C@H](CO)[C@@H](O)[C@H](O)[C@H]3O)cc2)nn1)NO` [Compound 2], the IC50 came out at 100 ± 0.1 µM in experiment [5], 76.4 ± 0.2 µM in experiment [6] and 10.4 ± 0.6 µM in experiment [7].

As to `O=C(/C=C/c1ccc2cc(O[C@H]3O[C@H](CO)[C@@H](O)[C@H](O)[C@H]3O)ccc2c1)NO` [Compound 8], the IC50 was greater than 100 µM in experiment [5], 82.1 µM in experiment [6] and 66.1 µM in experiment [7].

For the compound `O=C(CCCCCCn1cc(-c2ccc3cc(O[C@H]4O[C@H](CO)[C@@H](O)[C@H](O)[C@@H]4O)ccc3c2)nn1)NO` [STR-II-36], the IC50 is 10.4 nM in experiment [1], 0.719 nM in experiment [2], 319 nM in experiment [3] and 3.28 nM in experiment [4].

In the case of `O=C(CCCCCCn1cc(-c2ccc3cc(O[C@H]4O[C@H](CO)[C@@H](O)[C@H](O)[C@H]4O)ccc3c2)nn1)NO` [Compound 3], the half-inhibitory concentration (IC50) in experiment [5] worked out at 77.2 ± 4.3 µM; in experiment [6], 34.1 ± 3 µM; in experiment [7], 6.7 ± 1.6 µM.

As to `O=C(CCCCCn1cc(-c2ccc3cc(O[C@H]4O[C@H](CO)[C@@H](O)[C@H](O)[C@@H]4O)ccc3c2)nn1)NO` [Compound 9], the IC50 was 66.7 ± 16.1 µM in experiment [5], greater than 100 µM in experiment [6] and 13.5 ± 2.7 µM in experiment [7].

`Nc1ccc(-c2cccs2)cc1NC(=O)CCCCCCn1cc(-c2ccc(O[C@H]3O[C@H](CO)[C@@H](O)[C@H](O)[C@H]3O)cc2)nn1` [Compound 16]: the IC50 is 49.5 µM in experiment [5], greater than 100 µM in experiment [6] and greater than 100 µM in experiment [7].

For `O=C(/C=C/c1ccc2cc(O[C@H]3O[C@H](CO)[C@@H](O)[C@H](O)[C@@H]3O)ccc2c1)NO` [Compound 11], the results for the IC50 in experiment [5], in experiment [6] and in experiment [7] were greater than 100 µM, greater than 100 µM and 78.5 ± 11.6 µM, respectively.

Regarding `O=C(/C=C/c1ccc(O[C@H]2O[C@H](CO)[C@@H](O)[C@H](O)[C@H]2O)cc1)NO` [Compound 12], the IC50 in experiment [5] was greater than 100 µM; in experiment [6], greater than 100 µM; in experiment [7], 45.3 ± 5.9 µM.

In the case of `C[C@H]1C[C@@H](N(C)C)[C@H](O)C(Oc2ccc(-c3cn(CCCCCCC(=O)NO)nn3)cc2)O1` (stereo partly shown) [Compound 13], the IC50 was determined as 33.7 ± 1.8 µM in experiment [5], 76.4 µM in experiment [6] and 9.6 ± 3.4 µM in experiment [7].

Values taken from patent publication US12617813B2, “Glycosylated histone deacetylase inhibitors and methods of making and using the same” (Georgia Tech Research Corporation, priority 2020, dated 2026).
